In patent publication US8178540B2 (priority 2006, dated 2012):

Experiments:
[1] = tested on: tobacco budworm (Heliothis virescens); conditions: 2500 ppm; eggs sprayed, 6 days
Sphaerotheca fuliginea = assay: Use Example 8: protective action on cucumber leaves; format: in vivo; conditions: 250 ppm (printed for RC 3 only); cucumber seedlings sprayed 1 day before inoculation; after seven days; untreated plants 90% infected
Excerpt: After inoculation, the trial plants were transferred to a green house.

Alternaria solani = assay: Use Example 2: early blight of tomato, greenhouse, spores in 2% biomalt; format: in vivo; conditions: 250 ppm; tomato plants sprayed 1 day before inoculation; assessed after 5 days; untreated plants 90% infected
Description: The next day, the treated plants were inoculated with a spore suspension of Alternaria solani which contained 0.17×10^6 spores/ml in a 2% aqueous biomalt solution. The test plants were then placed in a water vapor-saturated chamber at temperatures of from 20 to 22° C. After 5 days the disease on the untreated infected control plants had developed to such an extent that the infection of all plants could be determined visually in %.

Phytophthora infestans = format: in vivo; conditions: 250 ppm; tomato plants, sprayed 1 day before inoculation; after six days; untreated plants 90% infected

Row | SMILES | infection (% diseased leaf area) (Sphaerotheca fuliginea) | infection (Alternaria solani) | also measured
1 | O=S(=O)(NCc1ccncn1)c1ccc(-c2ccc(Cl)cc2Cl)cc1 [Example 54] | – | – | mortality [1]: at least 75%
2 | COc1nccc(CNS(=O)(=O)c2ccc(-c3ccc(Cl)cc3)cc2)n1 [Example 88] | no infection | – | –
3 | O=S(=O)(NCc1ccncn1)c1ccc(Oc2ccc(Cl)cc2)cc1 [Example 199] | – | less than or equal to 5% | –
4 | O=S(=O)(NCc1ccncc1)c1ccc(Oc2ccc(Cl)cc2)cc1 [RC 1] | – | 40% | –
5 | O=S(=O)(NCc1ccncc1)c1ccc(-c2ccc(Cl)cc2)cc1 [RC 2] | – | – | infection (% diseased leaf area) (Phytophthora infestans): 90%
6 | COc1cc(CNS(=O)(=O)c2ccc(-c3ccc(Cl)cc3)cc2)ccn1 [RC 3] | 90% | – | –
